Measurements as given in the supplement of paper PMC10307832.

Legend:
Experiment in all cases: relative viability (nuclei count vs DMSO), 5 days (fraction); higher = more cells survive
Adavosertib + Lapatinib = compound: C=CCn1c(=O)c2cnc(Nc3ccc(N4CCN(C)CC4)cc3)nc2n1-c1cccc(C(C)(C)O)n1 [Adavosertib] + CS(=O)(=O)CCNCc1ccc(-c2ccc3ncnc(Nc4ccc(OCc5cccc(F)c5)c(Cl)c4)c3c2)o1 [Lapatinib] (partner 2 µM)
Method in brief: (§1)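 Relative viability divides the nuclei count in treated wells by that in vehicle wells. Lung cancer cell lines were seeded in 1536-well plates, dosed by pin tool the next day, and fixed and stained after 5 days in one step with final 0.05% Triton X-100, 1% formaldehyde and 1 ug/ml Hoechst. Dosing was a single drug or a fixed anchor-drug dose plus five library-drug doses (not always all listed) in √10 steps, and values are medians of duplicate plates imaged at 4×.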

Adavosertib + Foretinib = compound: C=CCn1c(=O)c2cnc(Nc3ccc(N4CCN(C)CC4)cc3)nc2n1-c1cccc(C(C)(C)O)n1 [Adavosertib] + COc1cc2c(Oc3ccc(NC(=O)C4(C(=O)Nc5ccc(F)cc5)CC4)cc3F)ccnc2cc1OCCCN1CCOCC1 [Foretinib] (partner 0.25 µM)
Method in brief: as §1

Nelarabine + OSI-027 = compound: COc1nc(N)nc2c1ncn2[C@@H]1O[C@H](CO)[C@@H](O)[C@@H]1O [Nelarabine] + COc1cccc2cc(-c3nc([C@H]4CC[C@H](C(=O)O)CC4)n4ncnc(N)c34)[nH]c12 [OSI-027] (partner 0.5 µM)
Method in brief: as §1

Nelarabine + Olaparib = compound: COc1nc(N)nc2c1ncn2[C@@H]1O[C@H](CO)[C@@H](O)[C@@H]1O [Nelarabine] + O=C(c1cc(Cc2n[nH]c(=O)c3ccccc23)ccc1F)N1CCN(C(=O)C2CC2)CC1 [Olaparib] (partner 8 µM)
Method in brief: as §1

| Cell Line | relative viability (Adavosertib + Lapatinib; first compound 0.01 µM) | relative viability (Adavosertib + Lapatinib; first compound 0.03162 µM) | relative viability (Adavosertib + Lapatinib; first compound 0.1 µM) | relative viability (Adavosertib + Lapatinib; first compound 0.3162 µM) | relative viability (Adavosertib + Foretinib; first compound 0.01 µM) | relative viability (Adavosertib + Foretinib; first compound 0.03162 µM) | relative viability (Adavosertib + Foretinib; first compound 0.1 µM) | relative viability (Adavosertib + Foretinib; first compound 0.3162 µM) | relative viability (Nelarabine + OSI-027; first compound 0.01 µM) | relative viability (Nelarabine + OSI-027; first compound 0.03162 µM) | relative viability (Nelarabine + OSI-027; first compound 0.1 µM) | relative viability (Nelarabine + OSI-027; first compound 0.3162 µM) | relative viability (Nelarabine + OSI-027; first compound 1 µM) | relative viability (Nelarabine + Olaparib; first compound 0.01 µM) | relative viability (Nelarabine + Olaparib; first compound 0.03162 µM) | relative viability (Nelarabine + Olaparib; first compound 0.1 µM) | relative viability (Nelarabine + Olaparib; first compound 0.3162 µM) | relative viability (Nelarabine + Olaparib; first compound 1 µM) |
| --- | --- | --- | --- | --- | --- | --- | --- | --- | --- | --- | --- | --- | --- | --- | --- | --- | --- | --- |
| PC-3 [JPC-3] | 0.445 | 0.418 | 0.47 | 0.429 | 0.957 | 1.04 | 1.04 | 1.04 | 0.854 | 0.604 | 0.73 | 0.744 | 0.685 | 1.46 | 1.2 | 1.1 | 1.25 | 1.22 |
| NCI-H1395 | 0.824 | 1.31 | 1.03 | 0.78 | 0.922 | 0.932 | 0.989 | 0.83 | 0.611 | 0.587 | 0.632 | 0.615 | 0.634 | 0.465 | 0.431 | 0.403 | 0.464 | 0.519 |
| SK-MES-1 | 0.45 | 0.43 | 0.476 | 0.389 | 1.02 | 0.924 | 0.866 | 0.731 | 0.698 | 0.579 | 0.62 | 0.683 | 0.611 | 0.819 | 0.66 | 0.707 | 0.773 | 0.762 |
| CAL-12T |  | 0.678 | 0.598 | 0.464 | 1.12 | 1.09 | 1.16 | 1.09 | 0.616 | 0.874 | 0.687 | 0.635 | 0.583 | 0.662 | 0.87 | 0.748 | 0.676 | 0.73 |
| LCLC-97TM1 |  | 0.703 | 0.804 | 0.686 | 0.847 | 0.906 | 0.994 | 0.881 | 0.713 | 0.483 | 0.357 | 0.527 | 0.56 |  |  | 0.413 | 0.358 | 0.388 |
| HOP-62 | 1.14 | 1.23 | 1.04 | 1.11 | 1.09 | 1.23 | 1.15 | 1.34 | 0.981 | 0.866 | 0.971 | 0.941 | 0.838 | 0.479 | 0.315 | 0.283 | 0.368 | 0.458 |
| NCI-H596 | 0.995 | 1.12 | 1.01 | 1 | 1.01 | 1.03 | 0.87 | 0.755 | 0.82 | 0.668 | 0.698 | 0.692 | 0.792 | 0.654 | 0.708 | 0.759 | 0.756 | 0.728 |
| NCI-H2126 | 0.736 | 0.781 | 0.764 | 0.829 | 1.27 | 1.22 | 1.15 | 1.16 | 0.761 | 0.724 | 0.641 | 0.771 | 0.66 | 1.05 | 0.981 | 0.951 | 0.961 | 0.967 |
| NCI-H2087 | 0.951 | 1.21 | 1.15 | 1.3 | 1.22 | 1.11 | 1.37 | 1.06 | 0.568 | 0.639 | 0.489 | 0.676 | 0.517 | 0.713 | 0.421 | 0.73 | 0.68 | 0.72 |
| NCI-H1355 | 0.955 | 1.02 | 0.966 | 0.948 | 1.01 | 1.02 | 0.975 | 0.946 | 0.481 | 0.434 | 0.367 | 0.363 | 0.382 | 0.824 | 0.6 | 0.684 | 0.766 | 0.74 |
| ABC-1 | 1.12 | 1.09 | 1.24 | 1.26 | 0.909 | 1.31 | 1.39 | 1.03 | 0.535 | 0.48 | 0.38 | 0.44 | 0.477 | 0.774 | 0.706 | 0.777 | 0.903 | 0.835 |
| NCI-H358 | 0.355 | 0.429 | 0.46 | 0.431 | 0.764 | 0.682 | 0.592 | 0.285 | 1 | 0.816 | 0.767 | 1.09 | 0.989 | 0.616 | 0.406 | 0.587 | 0.637 | 0.627 |
| NCI-H520 | 0.923 | 0.822 | 0.802 | 0.858 | 0.784 | 0.81 | 0.743 | 0.703 | 0.321 | 0.233 | 0.233 | 0.395 | 0.264 | 0.29 | 0.29 | 0.343 | 0.366 | 0.363 |
| NCI-H2405 | 1.09 | 1.13 | 1.04 | 1.11 | 1.05 | 1.06 | 1.1 | 1.13 | 0.722 | 0.66 | 0.471 | 0.632 | 0.624 | 0.948 | 0.834 | 0.83 | 0.899 | 0.896 |
| NCI-H2023 | 0.787 | 0.735 | 0.599 | 0.344 | 0.85 | 0.933 | 0.916 | 0.568 | 0.545 | 0.397 | 0.341 | 0.416 | 0.354 | 0.597 | 0.497 | 0.503 | 0.422 | 0.455 |
| NCI-H1975 | 0.878 | 0.805 | 0.895 | 0.667 | 0.967 | 0.962 | 0.878 | 0.778 | 0.791 | 0.55 | 0.87 | 0.834 | 0.876 | 1.04 | 0.942 | 0.823 | 0.856 | 0.797 |
| EPLC-272H | 0.745 | 0.958 | 0.844 | 0.739 | 0.674 | 0.681 | 0.591 | 0.247 | 0.28 | 0.248 | 0.269 | 0.311 | 0.233 | 1.13 | 0.881 | 0.646 | 0.842 | 0.769 |
| NCI-H2228 | 1.39 | 1.13 | 1.46 | 0.494 | 0.837 | 1.15 | 0.686 | 0.472 | 0.949 | 0.635 |  | 0.784 | 0.563 | 0.664 | 0.574 | 0.322 | 0.826 | 0.447 |
